The data set is described as follows: Solubility of peptide monomer. The class given is physicochemical. The note with it: water, or water/solvent mixtures. The method, then: As described further below, Poly 1-3 were tested for gene delivery applications. As contemplated structures are highly adaptable, structural variations can be made with relative ease to optimize gene transfection levels while maintaining relatively low levels of cytotoxicity. Initial manipulations were performed involving lengthening the peptidyl monomer sequence with additional L-lysine residues to thereby increase the charge density of the polymer overall and to thereby offer stronger DNA binding. It should be recognized that where increased charge density improves the gene transfectability of the polymer system, more residues can be added until an optimal length is found. […] For this reason, solution phase polymerizations were attempted to yield small polymer chains and cyclic structures. One example of cyclic structures is given in Structure VI below.

Non-standard residues stand in square brackets, D forms with d. Residues, ends and D or L forms follow the SMILES beside them. ξ: configuration not given here. *: point of attachment. Boc = CC(C)(C)OC(=O)*; ξK = NCCCCC(N)C(=O)O

Consider `COC(=O)[C@H](CCCCN)NC(=O)C(CCCCNC(=O)OC(C)(C)C)NC(=O)C(CCCCNC(=O)OC(C)(C)C)NC(=O)C(CCCCNC(=O)OC(C)(C)C)NC(=O)[C@H](CCCCN)NC(=O)OC(C)(C)C` (stereo partly shown) [pentalysine monomer] (Boc-K[ξK](Boc)[ξK](Boc)[ξK](Boc)K-OMe), for which the solubility result is reported as “insoluble”.
